From patent publication US20230346797A1, “INHIBITORS OF THE PLASMODIAL SURFACE ANION CHANNEL AS ANTIMALARIALS” (The United States of America,as represented by the …, priority 2008, published 2023)

Tests used:
[1] = test system: P. falciparum; test: In vitro parasite growth inhibition, SYBR Green I-based fluorescence assay for parasite nucleic acid; format: cell-based; settings: Plasmodium falciparum, 72 h; 3 days culture; read-out: In vitro growth inhibitory IC50
[2] = test system: P. falciparum; test: In vitro parasite growth inhibition by combinations of two PSAC antagonists (isobologram)
Procedure: Parasite killing by identified PSAC antagonists was evaluated using a SYBR Green I-based fluorescence assay for parasite nucleic acid in 96-well format. […] Cultures were maintained for 3 days at 37° C. in 5% 02, 5% CO2. […] For each antagonist concentration, the mean of triplicate measurements was calculated after subtraction of background fluorescence from cultures killed by 20 μM chloroquine, a known antimalarial agent.
The solid line represents the line of additive killing.

[3] = in combination with compound 11 (Comp. A)
[4] = in combination with compound 24 (Comp. A)
[5] = in combination with compound 26 (Comp. A)
[6] = in combination with compound 31 (Comp. A)

| Compound | IC50 [1] | also measured |
| --- | --- | --- |
| O=C(Nc1ccc(-c2noc(-c3cccs3)n2)cc1)c1cccnc1 [Compound 21] | 10 µM | parasite killing by combination [2, 4]: S |
| CCCN(C(=O)c1cc2cc3ccc(C)cc3nc2o1)c1cccc(C)c1 [Compound 26] | 6.9 µM |  |
| Cc1cc(-c2nn3c(C)nnc3s2)ccc1NC(=O)c1ccco1 [Compound 20] | 21.6 µM |  |
| CCCCCC(=O)Nc1cc(-c2nn3c(C)nnc3s2)ccc1C [Compound 22] | 21.5 µM |  |
| CCCCCn1c(=O)c2nc(-c3ccc(OC)cc3)oc2c2ccccc21 [Compound 34] | 15 µM |  |
| Cc1cc(-c2nn3c(C)nnc3s2)ccc1NC(=O)C(C)C [Compound 23] | 36.7 µM |  |
| O=C1Nc2cc(C(=O)N3CCC(N4CCCCC4)CC3)ccc2Sc2ccccc21 [Compound 9] | 6.9 µM |  |
| COc1cc(OC)nc(Sc2ccc(NC(=O)c3ccc(C(C)(C)C)cc3)cc2)n1 [Compound 36] |  | parasite killing by combination [2, 4]: S |
| O=C(COc1ccc2ccccc2c1)Nc1cccc(-c2nc3ncccc3o2)c1 [Compound 15] | 6 µM |  |
| COc1ccc(OCC(=O)Nc2ccc(-c3nn4c(C)nnc4s3)cc2)cc1 [Compound 16] | 4.98 µM | parasite killing by combination [2, 4]: S; parasite killing by combination ([2]; in combination with compound 35 (Comp. A)): S |
| CCc1nnc2sc(-c3ccc(NC(=O)c4ccc(N5CCCC5)c([N+](=O)[O-])c4)cc3)nn12 [Compound 17] | 39 µM |  |
| COc1ccc2cc3cc(C(=O)N(C)C4CCCCC4)oc3nc2c1 [Compound 25] | 4 µM | parasite killing by combination [2, 3]: S; parasite killing by combination [2, 4]: S; parasite killing by combination [2, 5]: S; parasite killing by combination [2, 6]: S |
| COc1ccc(-c2nc3c(=O)n(C)c4ccccc4c3o2)cc1 [Compound 33] | > 20 µM |  |

Continued by falling IC50 [1], values first:

| IC50 [1] | Compound | also measured |
| --- | --- | --- |
| 3.85 µM | CCOc1ccc(C(=O)Nc2ccc(-c3nn4c(C)nnc4s3)cc2)cc1 [Compound 13] | parasite killing by combination [2, 3]: S; parasite killing by combination [2, 4]: S; parasite killing by combination [2, 5]: S; parasite killing by combination [2, 6]: S; parasite killing by combination ([2]; in combination with compound 32 (Comp. A)): S; parasite killing by combination ([2]; in combination with compound 33 (Comp. A)): S; parasite killing by combination ([2]; in combination with compound 34 (Comp. A)): S |
| 3.01 µM | O=C1Nc2cc(C(=O)N3CCC(Cc4ccccc4)CC3)ccc2Sc2ccccc21 [Compound 10] |  |
| 3 µM | CCC(Cc1ccccc1)NC(=O)c1ccc2c(c1)NC(=O)c1ccccc1S2 (stereo not shown) [Compound 11] |  |
| 3 µM | COc1ccc(-c2nc3c(=O)[nH]c4ccccc4c3s2)cc1 [Compound 32] |  |
| 2.74 µM | Cc1nnc2sc(-c3ccc(NC(=O)c4ccc(Br)o4)cc3)nn12 [Compound 19] |  |
| 2.14 µM | CCCCOc1ccc(C(=O)Nc2ccc(-c3nn4c(C)nnc4s3)cc2)cc1 [Compound 18] | parasite killing by combination, isobologram (FIG. 3C) ([2]; in combination with compound 24 (component A antagonist), mixtures producing 50% parasite killing): synergistic parasite killing |
| 1.33 µM | Cc1ccc(C)c(N2CCN(C(=O)c3ccc4c(c3)NC(=O)c3ccccc3S4)CC2)c1 [Compound 5] |  |
| 1 µM | Cc1cccc(N2CCN(C(=O)c3ccc4c(c3)NC(=O)c3ccccc3S4)CC2)c1C [Compound 2] |  |
| 0.67 µM | O=C1Nc2cc(C(=O)N3CCN(c4ccccc4)CC3)ccc2Sc2ccccc21 [Compound 3] |  |
